Results: patent US20210252120A1, “IMMUNOTHERAPY FOR CANCER” (SOTIO A.S., priority 2016, published 2021)

Experiments:
[1] = system: CD8^+ T cells; assay: Proliferation of CD8+ T cells (Ki67+ staining, flow cytometry) in tumor cell suspensions incubated with IL-15; type: cell-based, human
Procedure: (§1) Tumoral (Tu) and non-tumoral tissue (NTu) were obtained from 82 NSCLC patients undergoing neoadjuvant surgery. The characteristics of NSCLC patients are depicted in Table 2. Tissue samples obtained at the day of surgery were chopped into small pieces and incubated with agitation in RMPI 1640 medium (Gibco) with 100 ng/ml DNAse I and 20 ng/ml Collagenase D (both from Roche) for 45 minutes at 37° C. The cell suspension was then passed through the 100 μm strainer into 50 ml falcon tubes to obtain single cell suspensions. The infiltrated immune cell populations were analyzed by flow cytometry immediately after staining with specific antibodies for 30 min at 4° C. as described below. For further stimulation lymphocytes were counted and seeded into 96-well plates at the concentration of 1×10^6 lymphocytes/nil in RPMI-1640 medium supplemented with 10% heat-inactivated fetal bovine serum (PAA), 2 mM GlutaMAX I CTS (Gibco) and 100 U/ml penicillin+[…] streptomycin (Gibco). Cells were stimulated with 50 ng/ml PMA and 10 ng/ml ionomycin (both from Sigma-Aldrich) for 1 h at 37° C. before Brefeldin A (BioLegend, 1000×) was added for 3 h to detect intracellular IFN-γ in CD8^+ and CD4^+ T cells. In some experiments recombinant IL-15 (Peprotech, 13 ng/ml) was added to the cell culture and the proliferating CD8^+ T cells and NK cells were detected by flow cytometry after 3 and 7 days of incubation at 37° C. Cell viability was detected by DAPI (Thermo Fisher Scientific) or by LIVE/DEAD® Fixable Aqua Dead Cell Stain Kit 405 nm excitation (Invitrogen).
(§2) Cells were stained extracellularly with the mixture of appropriate antibody in PBS for 30 min at 4° C. For intracellular staining of IFN-γ, Foxp3, CD3 and Ki-67 the cells were fixed for 30 min using Fixation Buffer (eBioscience), permeabilized with Permeabilization Buffer (eBioscience) and stained intracellularly for 30 min at 4° C. Cells were washed with PBS and analyzed by LSRFortessa (BD Biosciences). Data were analyzed with FlowJo software (Tree Star). Flow cytometry data may be expressed as mean fluorescent intensity (MFI).
(§3) As PMA and ionomycin represent strong unspecific stimulation of immune cells, IL-15 was used to activate predominantly NK cells and CD8^+ T cells, playing a major role in antitumor immunity. Tumor cell suspensions were incubated alone or with IL-15 for 7 days. The proliferation of CD8^+ T cells and NK cells was analyzed on Day 0, 3 and 7 by Ki67^+ staining followed by flow cytometry. Whereas 68% and 79% of T cells and NK cells, respectively, proliferated on Day 3 of incubation in AC tumors, only 23% and 8% of T cells and NK cells, respectively, proliferated in SCC tumors, confirming a higher immunosuppressive environment in SCC than AC tumors (see Table 6).

[2] = system: NK cells (CD3^−CD56^+); assay: Proliferation of NK cells (Ki67+ staining, flow cytometry) in tumor cell suspensions incubated with IL-15; type: cell-based, human
Procedure: as §1, §2, §3

[3] = AC tumor cell suspension, Day 3, +IL-15
[4] = AC tumor cell suspension, Day 7, +IL-15
[5] = SCC tumor cell suspension, Day 3, +IL-15
[6] = SCC tumor cell suspension, Day 7, +IL-15

**Q.** Which results are given for “IL-15: recombinant IL-15 (Peprotech, 13 ng/ml) added to cell culture to activate predominantly NK cells and CD8+ T cells”?
**A.** Ki67^+ cells from CD8^+ T cells [1, 3]: 68%; Ki67^+ cells from CD8^+ T cells [1, 4]: 62%; Ki67^+ cells from CD8^+ T cells [1, 5]: 23%; Ki67^+ cells from CD8^+ T cells [1, 6]: 45%; Ki67^+ cells from CD3^−CD56^+ T cells (NK cells) [2, 3]: 79%; Ki67^+ cells from CD3^−CD56^+ T cells (NK cells) [2, 4]: 50%; Ki67^+ cells from CD3^−CD56^+ T cells (NK cells) [2, 5]: 8%; Ki67^+ cells from CD3^−CD56^+ T cells (NK cells) [2, 6]: 40%
